Measured values published in US20220081422A1 (Janssen Biotech, Inc., priority 2019, published 2022).

Tests used:
human DHODH = biological target: T1, human DHODH (Homo sapiens, UniProt Q02127); assay: DHODH enzymatic assay (DCIP absorbance, end-point); format: biochemical; settings: purified human DHODH, DCIP as final electron acceptor, end-point mode; read-out: hDHODH IC50
T1 construct: purchased Proteros PR-0044
Experimental: In vitro Assay: DHODH enzymatic assay
To detect DHODH enzyme activities, dichloroindophenol (DCIP) is added as the final electron acceptor in the assay. DCIP can accept electrons from the reduced coenzyme Q generated in the assay, or from dihydroorotate (DHO) via FMN by binding presumably to the ubiquinone pocket. […] The assay buffer contained […], pH 7.5, 150 mM NaCl, 0.5 mM EDTA, and 0.1% Triton X-100 in MilliQ water. Substrate consisting of 20 mM DHO, 5 mM CoQ6, and 1 mM DCIP in assay buffer, initiates the reaction. […] Absorbance measurements were obtained using the BMG Phera Star plate-reading spectrophotometer. Purified human DHODH was purchased from Proteros (cat. No. PR-0044). Chemicals were purchased from Sigma-Aldrich, Teknova, and Avanti Polar Lipids. Liquid handling was performed using Labcyte Echo and Formulatrix Tempest.

MOLM-13 cells = assay: MOLM-13 cellular assay (CellTiter-Glo cell viability); format: cell-based; settings: 72 hours exposure, cell viability by CellTiter-Glo
Experimental: In Vitro Assay: MOLM-13 Cellular Assay
MOLM-13 cells were obtained from DSMZ and were maintained in RPMI 1640+Glutamax+25 mM HEPES (Invitrogen, catalog number 72400) supplemented with 10% heat inactivated fetal bovine serum (FBS; Invitrogen, catalog number 16140). The day prior to assay set-up, cells were pelleted, resuspended in fresh media, counted, and cells were plated at 0.4×10^6 cell/mL in a T150 flask. On the day of the assay, cells were pelleted, resuspend in fresh media, counted and seeded at 5,000 cells/well in white opaque 96-well tissue culture treated microplates (Perkin Elmer, catalog number 6005680). Cells were exposed to different concentrations of test compounds at 37° C., 5% CO2 for 72 hours immediately after seeding. Cell viability was acquired on a Perkin Elmer Envision 2104 multilabel reader using the CellTiter-Glo assay (Promega) according to the manufacturer's instructions.

T1 sequence (Q02127 whole entry): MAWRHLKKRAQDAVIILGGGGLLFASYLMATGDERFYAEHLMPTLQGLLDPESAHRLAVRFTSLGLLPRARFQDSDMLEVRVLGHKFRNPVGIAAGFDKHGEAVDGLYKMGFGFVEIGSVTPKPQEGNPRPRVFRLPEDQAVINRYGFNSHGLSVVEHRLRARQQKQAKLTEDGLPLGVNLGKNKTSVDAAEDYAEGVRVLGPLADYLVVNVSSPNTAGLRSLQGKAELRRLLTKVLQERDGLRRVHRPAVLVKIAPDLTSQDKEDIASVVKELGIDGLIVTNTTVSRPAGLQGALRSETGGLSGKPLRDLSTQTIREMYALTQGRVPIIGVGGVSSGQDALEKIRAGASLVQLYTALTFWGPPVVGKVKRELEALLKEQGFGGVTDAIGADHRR

Compound | IC50 (human DHODH) | IC50 (MOLM-13 cells; Homo sapiens, MOLM-13, 72 h) | IC50 (MOLM-13 cells)
CCn1c(CO)nn(-c2cc3c(cc2F)C(=O)N(c2nc(OC)ccc2Cl)CN3C(C)C)c1=O [Example 30, 3-(3-Chloro-6-methoxypyridin-2-yl)-7-(4-ethyl-3-(hydroxymethyl)-5-oxo-4,5-dihydro-1H-1,2,4-triazol-1-yl)-6-fluoro-1-isopropyl-2,3-dihydroquinazolin-4(1H)-one] | 3 nM | 3.39 nM | –
CCn1c(CO)nn(-c2nc3c(cc2F)C(=O)N(c2c(F)cccc2Cl)CN3[C@@H](C)C2OCCCO2)c1=O [Example 23, (S)-1-(1-(1,3-Dioxan-2-yl)ethyl)-3-(2-chloro-6-fluorophenyl)-7-(4-ethyl-3-(hydroxymethyl)-5-oxo-4,5-dihydro-1H-1,2,4-triazol-1-yl)-6-fluoro-2,3-dihydropyrido[2,3-d]pyrimidin-4(1H)-one] | 3 nM | 6.64 nM | –
CCn1c(CO)nn(-c2cc3c(cc2F)C(=O)N(c2c(F)cncc2Cl)CN3C(C)C)c1=O [Example 29, 3-(3-Chloro-5-fluoropyridin-4-yl)-7-(4-ethyl-3-(hydroxymethyl)-5-oxo-4,5-dihydro-1H-1,2,4-triazol-1-yl)-6-fluoro-1-isopropyl-2,3-dihydroquinazolin-4(1H)-one] | 20 nM | 27.3 nM | –
CCn1c(CO)nn(-c2cc3c(cc2F)C(=O)N(c2c(C)cnc(OC)c2Cl)CN3C(C)C)c1=O [Example 32, 3-(3-Chloro-2-methoxy-5-methylpyridin-4-yl)-7-(4-ethyl-3-(hydroxymethyl)-5-oxo-4,5-dihydro-1H-1,2,4-triazol-1-yl)-6-fluoro-1-isopropyl-2,3-dihydroquinazolin-4(1H)-one] | 9 nM | 5.96 nM | –
CCn1c(CO)nn(-c2cc3c(cc2F)C(=O)N(c2c(F)cccc2Cl)CN3C2CCC2)c1=O [Example 19, 3-(2-Chloro-6-fluorophenyl)-1-cyclobutyl-7-(4-ethyl-3-(hydroxymethyl)-5-oxo-4,5-dihydro-1H-1,2,4-triazol-1-yl)-6-fluoro-2,3-dihydroquinazolin-4(1H)-one] | 3 nM | 2.57 nM | –
C=C(C1CN(c2c(F)cccc2Cl)C(=O)c2ccc(-n3nc(CO)n(CC)c3=O)cc21)C(F)(F)F (racemic) [Example 73, Racemic 2-(2-Chloro-6-fluorophenyl)-6-(4-ethyl-3-(hydroxymethyl)-5-oxo-4,5-dihydro-1H-1,2,4-triazol-1-yl)-4-(3,3,3-trifluoroprop-1-en-2-yl)-3,4-dihydroisoquinolin-1(2H)-one] | 8 nM | 12.2 nM | –
CCn1c(CO)nn(-c2cc3c(cc2F)C(=O)N(c2c(F)cccc2Cl)CN3CC(C)C)c1=O [Example 18, 3-(2-Chloro-6-fluorophenyl)-7-(4-ethyl-3-(hydroxymethyl)-5-oxo-4,5-dihydro-1H-1,2,4-triazol-1-yl)-6-fluoro-1-isobutyl-2,3-dihydroquinazolin-4(1H)-one] | 2 nM | 3.99 nM | –
C=C(C)[C@@H]1CN(c2c(C)cnc(OC)c2Cl)C(=O)c2cc(F)c(-n3nc(CO)n(CC)c3=O)cc21 (single isomer, unassigned; atropisomer 1) [Example 62, Atropisomer 1, (S*)-2-(3-Chloro-2-methoxy-5-methylpyridin-4-yl)-6-(4-ethyl-3-(hydroxymethyl)-5-oxo-4,5-dihydro-1H-1,2,4-triazol-1-yl)-7-fluoro-4-(prop-1-en-2-yl)-3,4-dihydroisoquinolin-1(2H)-one] | 2 nM | – | 0.793 nM
C=C(C)C1CN(c2cc(C)ccc2F)C(=O)c2cc(F)c(-n3nc(CO)n(CC)c3=O)cc21 (racemic) [Example 38, Racemic-6-(4-ethyl-3-(hydroxymethyl)-5-oxo-4,5-dihydro-1H-1,2,4-triazol-1-yl)-7-fluoro-2-(2-fluoro-5-methylphenyl)-4-(prop-1-en-2-yl)-3,4-dihydroisoquinolin-1(2H)-one] | 30 nM | 36.3 nM | –
CCCN1CN(c2c(F)cccc2Cl)C(=O)c2cc(F)c(-n3nc(CO)n(CC)c3=O)cc21 [Example 22, 3-(2-Chloro-6-fluorophenyl)-7-(4-ethyl-3-(hydroxymethyl)-5-oxo-4,5-dihydro-1H-1,2,4-triazol-1-yl)-6-fluoro-1-propyl-2,3-dihydroquinazolin-4(1H)-one] | 4 nM | 5.49 nM | –
CCn1c(CO)nn(-c2cc3c(cc2F)C(=O)N(c2c(F)cncc2C#N)CN3C(C)C)c1=O [Example 27, 4-(7-(4-Ethyl-3-(hydroxymethyl)-5-oxo-4,5-dihydro-1H-1,2,4-triazol-1-yl)-6-fluoro-1-isopropyl-4-oxo-1,4-dihydroquinazolin-3(2H)-yl)-5-fluoronicotinonitrile] | 30 nM | 48.1 nM | –
C=C(C)[C@@H]1CN(c2ccccc2Cl)C(=O)c2cc(F)c(-n3nc(CO)n(CC)c3=O)cc21 (stereo in doubt) [Example 34] | 0.9 nM | 1.06 nM | –
CC[C@@H](C)[C@H]1CN(c2c(F)cccc2Cl)C(=O)c2cc(F)c(-n3nc(CO)n(CC)c3=O)cc21 (relative stereo) [Example 72, (R*)-4-((R*)-sec-Butyl)-2-(2-chloro-6-fluorophenyl)-6-(4-ethyl-3-(hydroxymethyl)-5-oxo-4,5-dihydro-1H-1,2,4-triazol-1-yl)-7-fluoro-3,4-dihydroisoquinolin-1(2H)-one] | 5 nM | 6.57 nM | –
CCn1c(CO)nn(-c2cc3c(cc2F)c(=O)n(-c2c(F)cccc2Cl)c(=O)n3C(C)C)c1=O [Example 4, 3-(2-Chloro-6-fluorophenyl)-7-(4-ethyl-3-(hydroxymethyl)-5-oxo-4,5-dihydro-1H-1,2,4-triazol-1-yl)-6-fluoro-1-isopropylquinazoline-2,4(1H,3H)-dione] | 110 nM | 4.4 nM | –
C=C(C)C1CN(c2c(F)cccc2Cl)C(=O)c2cc(F)c(-n3nc(CO)n(CC)c3=O)cc21 (single isomer, unassigned) [Example 68, (R*)-2-(2-Chloro-6-fluorophenyl)-6-(4-ethyl-3-(hydroxymethyl)-5-oxo-4,5-dihydro-1H-1,2,4-triazol-1-yl)-7-fluoro-4-(prop-1-en-2-yl)-3,4-dihydroisoquinolin-1(2H)-one] | 2 nM | – | 4.66 nM
C=C(C)C1CN(c2ccccc2C)C(=O)c2cc(F)c(-n3nc(CO)n(CC)c3=O)cc21 (single isomer, unassigned) [Example 42, (R *)-6-(4-Ethyl-3-(hydroxymethyl)-5-oxo-4,5-dihydro-1H-1,2,4-triazol-1-yl)-7-fluoro-4-(prop-1-en-2-yl)-2-(o-tolyl)-3,4-dihydroisoquinolin-1(2H)-one] | 4 nM | – | 6.79 nM
C=C(C)C1CN(c2c(C)ccnc2Cl)C(=O)c2cc(F)c(-n3nc(CO)n(CC)c3=O)cc21 (racemic) [Example 45, Racemic-2-(2-chloro-4-methylpyridin-3-yl)-6-(4-ethyl-3-(hydroxymethyl)-5-oxo-4,5-dihydro-1H-1,2,4-triazol-1-yl)-7-fluoro-4-(prop-1-en-2-yl)-3,4-dihydroisoquinolin-1(2H)-one] | 7 nM | 6.98 nM | –
CCn1c(CO)nn(-c2nc3c(cc2F)C(=O)N(c2c(F)cccc2Cl)CN3C(C)C)c1=O [Example 5, 3-(2-Chloro-6-fluorophenyl)-7-(4-ethyl-3-(hydroxymethyl)-5-oxo-4,5-dihydro-1H-1,2,4-triazol-1-yl)-6-fluoro-1-isopropyl-2,3-dihydropyrido[2,3-d]pyrimidin-4(1H)-one] | 1.4 nM | 1.2 nM | –
C=C(C)C1CN(c2ccccc2C)C(=O)c2cc(F)c(-n3nc(CO)n(CC)c3=O)cc21 (single isomer, unassigned) [Example 41, (S*)-6-(4-Ethyl-3-(hydroxymethyl)-5-oxo-4,5-dihydro-1H-1,2,4-triazol-1-yl)-7-fluoro-4-(prop-1-en-2-yl)-2-(o-tolyl)-3,4-dihydroisoquinolin-1(2H)-one] | 1 nM | – | 1.99 nM
CCn1c(CO)nn(-c2cc3c(cc2F)C(=O)N(c2c(F)cccc2Cl)CN3[C@@H](C)C2CCCCC2)c1=O [Example 17, (S)-3-(2-Chloro-6-fluorophenyl)-1-(1-cyclohexylethyl)-7-(4-ethyl-3-(hydroxymethyl)-5-oxo-4,5-dihydro-1H-1,2,4-triazol-1-yl)-6-fluoro-2,3-dihydroquinazolin-4(1H)-one] | 0.1 nM | < 1.69 nM | –
CCC[C@H](C)N1CN(c2c(F)cccc2Cl)C(=O)c2cc(F)c(-n3nc(CO)n(CC)c3=O)cc21 [Example 15, (S)-3-(2-Chloro-6-fluorophenyl)-7-(4-ethyl-3-(hydroxymethyl)-5-oxo-4,5-dihydro-1H-1,2,4-triazol-1-yl)-6-fluoro-1-(pentan-2-yl)-2,3-dihydroquinazolin-4(1H)-one] | 0.3 nM | < 1.69 nM | –
